From PMC8854719, “Phase 1A/1B dose-escalation and -expansion study to evaluate the safety, pharmacokinetics, food effects and antitumor activity of pamiparib in advanced solid tumours” (British Journal of Cancer, 2021)
Marks after values point to notes of the source that are not given here.

Experiment: Safety and tolerability: adverse events, dose-limiting toxicities, MTD, RP2D (Phase 1A/1B)
Format: in vivo
Protocol: This was an open-label, Phase 1, dose-escalation/dose-expansion study, conducted across six study centres in Australia. The dose-escalation phase evaluated twice-daily (BID) and once-daily (QD) dosing, and the dose-expansion phase evaluated the BID RP2D from the dose-escalation phase and food effects (Fig. 1). The food-effects cohort comprised two sequences: fast followed by fed (sequence 1) and fed followed by fast (sequence 2). […] The decision to proceed to the next dose cohort was determined by the Safety Monitoring Committee and followed a modified 3 + 3 escalation scheme. […] When ≥2 DLTs occurred in the first 23 days of a dose level, the next lower dose level was declared the MTD. Safety was monitored and DLTs were assessed in all dose cohorts. […] The food-effects cohort investigated the effects of food on the PK of pamiparib in patients with advanced solid tumours.
The QD dosing regimen was added as an amendment to the protocol with the purpose of exploring the feasibility of a more convenient regimen.
Safety and tolerability were assessed throughout the study by monitoring adverse events (AEs), serious AEs, clinical laboratory measurements and physical examinations. Adverse events were categorised according to their severity (National Cancer Institute Common Terminology Criteria for Adverse Events v4.03) and relationship to the study treatment.

## C[C@]12CCCN1CC1=NNC(=O)c3cc(F)cc4[nH]c2c1c34 [pamiparib]
20 mg BID (n = 3)
  Ascites, AE of any grade: 0 (0.0) n (%)
  Back pain, AE of any grade: 0 (0.0) n (%)
  Constipation, AE of any grade: 0 (0.0) n (%)
  Cough, AE of any grade: 0 (0.0) n (%)
  Decreased appetite, AE of any grade: 0 (0.0) n (%)
  Diarrhoea, AE of any grade: 2 (66.7) n (%)
  Dose-limiting toxicity: 0 (0.0) n (%)
  Dyspnoea, AE of any grade: 1 (33.3) n (%)
  Fatigue, AE of any grade: 3 (100.0) n (%)
  Headache, AE of any grade: 1 (33.3) n (%)
  Hypoalbuminemia, AE of any grade: 0 (0.0) n (%)
  Hypomagnesemia, AE of any grade: 1 (33.3) n (%)
  Hypophosphatemia, AE of any grade: 0 (0.0) n (%)
  Increased AST, AE of any grade: 0 (0.0) n (%)
  Muscle spasms, AE of any grade: 0 (0.0) n (%)
  Nausea, AE of any grade: 2 (66.7) n (%)
  Neutropenia, AE of any grade: 0 (0.0) n (%)
  Non-cardiac chest pain, AE of any grade: 0 (0.0) n (%)
  Pain in extremity, AE of any grade: 1 (33.3) n (%)
  Peripheral sensory neuropathy, AE of any grade: 1 (33.3) n (%)
  Pleural effusion, AE of any grade: 0 (0.0) n (%)
  Pyrexia, AE of any grade: 0 (0.0) n (%)
  Treatment-emergent AE: 3 (100.0) n (%)
  Treatment-emergent AE: Grade 3 or higher: 1 (33.3) n (%)
  Treatment-emergent AE: Leading to death: 0 (0.0) n (%)
  Treatment-emergent AE: Leading to dose interruption: 3 (100.0) n (%)
  Treatment-emergent AE: Leading to dose modification: 3 (100.0) n (%)
  Treatment-emergent AE: Leading to dose reduction: 1 (33.3) n (%)
  Treatment-emergent AE: Leading to treatment discontinuation: 0 (0.0) n (%)
  Treatment-emergent AE: Serious: 1 (33.3) n (%)
  Treatment-related AE: 3 (100.0) n (%)
  Treatment-related AE: Grade 3 or higher: 1 (33.3) n (%)
  Treatment-related AE: Leading to death: 0 (0.0) n (%)
  Treatment-related AE: Leading to dose interruption: 1 (33.3) n (%)
  Treatment-related AE: Leading to dose modification: 1 (33.3) n (%)
  Treatment-related AE: Leading to dose reduction: 1 (33.3) n (%)
  Treatment-related AE: Leading to treatment discontinuation: 0 (0.0) n (%)
  Treatment-related AE: Serious: 0 (0.0) n (%)
  Upper respiratory tract infection, AE of any grade: 0 (0.0) n (%)
  Urinary tract infection, AE of any grade: 1 (33.3) n (%)
  Vomiting, AE of any grade: 2 (66.7) n (%)
40 mg BID (n = 6)
  Abdominal pain, AE of any grade: 0 (0.0) n (%)
  Anaemia, AE of any grade: 2 (33.3) n (%)
  Ascites, AE of any grade: 1 (16.7) n (%)
  Back pain, AE of any grade: 2 (33.3) n (%)
  Constipation, AE of any grade: 1 (16.7) n (%)
  Cough, AE of any grade: 0 (0.0) n (%)
  Decreased appetite, AE of any grade: 0 (0.0) n (%)
  Diarrhoea, AE of any grade: 2 (33.3) n (%)
  Dose-limiting toxicity: 1 (16.7)^a n (%)
  Dyspnoea, AE of any grade: 0 (0.0) n (%)
  Fatigue, AE of any grade: 2 (33.3) n (%)
  Headache, AE of any grade: 2 (33.3) n (%)
  Hypoalbuminemia, AE of any grade: 0 (0.0) n (%)
  Hypomagnesemia, AE of any grade: 0 (0.0) n (%)
  Hypophosphatemia, AE of any grade: 1 (16.7) n (%)
  Increased AST, AE of any grade: 1 (16.7) n (%)
  Muscle spasms, AE of any grade: 0 (0.0) n (%)
  Nausea, AE of any grade: 5 (83.3) n (%)
  Neutropenia, AE of any grade: 2 (33.3) n (%)
  Non-cardiac chest pain, AE of any grade: 0 (0.0) n (%)
  Pain in extremity, AE of any grade: 0 (0.0) n (%)
  Peripheral sensory neuropathy, AE of any grade: 0 (0.0) n (%)
  Pleural effusion, AE of any grade: 0 (0.0) n (%)
  Pyrexia, AE of any grade: 0 (0.0) n (%)
  Treatment-emergent AE: 6 (100.0) n (%)
